This note sets out measurements from patent US20050196751A1, “Adenoviral vector-mediated delivery of modified steroid hormone receptors and related products and methods” (priority 1998, published 2005).

The experiment has as its system C57BL/6 mice. Put plainly: Serum hGH in adenoviral infected mice after RU486 (radio-immunoassay). It counts as in vivo, mouse. The procedure: RU486 (250 μg/kg) was administered every second day after infection for a period of two weeks as indicated by arrows. Mice were bled at different time points and serum hGH was analyzed by radio-immunoassay. Mice 1 and 2 received intraperitoneal injections (IP) of RU486; Mouse 3 (−RU486) received sesame oil. hGH serum levels are shown as μg/ml.
Mice infected for two weeks with the regulatable adenoviral construct hGHGLp65 were induced with […] RU486 as indicated by an arrow. 3, 6, 12, 24, 48, 72, 120 and 192 hours after RU486 administration blood was drawn from the mice, and hGH was measured in the serum by a radio-immunoassay. hGH serum levels of individual mice are shown in μg/ml.
Mice infected with hGH-GLp65 or hGH-H-GLp65 adenoviral vectors were induced 3 times with 250 μg/kg RU486 over a time period of 50 Days. hGH was measured prior to, 12 hours after, and 7 days after RU486 administration. […] Serum levels of hGH are shown in μg/ml.
hGH analysis in adenoviral infected mice. […] Serum hGH levels were detected using a radio-immunoassay. […]
To investigate the kinetics of the regulatory system, mice received a single RU486 administration two weeks after the initial infection and serum hGH levels were measured at different time intervals. […]

`CC#C[C@]1(O)CC[C@H]2[C@@H]3CCC4=CC(=O)CCC4=C3[C@@H](c3ccc(N(C)C)cc3)C[C@@]21C` [RU486, mifepristone]: the “doses of RU486 needed for induction” value (induction of transgene in the regulatory system) lay in the range of 0.1 to 0.5 mg/kg. Moreover, the “hGH induction with oral versus I.P. RU486” value (oral RU486 administration compared with intraperitoneal) is reported as “comparable”.
